Data on 13 molecules can be found in publication PMC2788672 (Journal of medicinal chemistry, 2009).

pIC50: −log10 of the molar value. Converted amounts (≈) assume the structure as drawn. “Also recorded” adds a separate entry of the source. Read-outs that look alike come from different tables or passages of the source.

Data set [1] concerns P. carinii. Put plainly: In vitro anti-P. carinii ATP detection assay. Type of data set: cell-based, Pneumocystis carinii. Particulars: for IC50: Pneumocystis carinii.
Data set [2] relates to sporogonic development of Plasmodium berghei ANKA in Anopheles stephensi. Put plainly: In vivo transmission-blocking activity. To be noted: single i.p. dose to mice.
Data set [3] deals with chloroquine-resistant P. falciparum strain W2. To be noted: cited from earlier work; for pIC50: read-out: Activity against blood stage forms IC50, ref [28].
Data set [4] relates to P. carinii. Particulars: 72 h, ref [28], cited from earlier work; for pIC50: read-out: Anti-P. carinii activity IC50.
Data set [5] relates to A549 human adenocarcinoma epithelial lung cells. As to the kind of experiment: Cytotoxicity, viability of A549 cells. Type of data set: cell-based.
The subject of data set [6] is chloroquine-resistant P. falciparum strain W2. Put plainly: In vitro blood-schizontocidal activity assay. Type of data set: cell-based, Plasmodium falciparum. To be noted: P. falciparum W2, 48 h incubation.
Setting [7] is: 24 h, read-out: Anti-P. carinii activity IC50, 24 h.
Setting [8] is: 48 h, read-out: Anti-P. carinii activity IC50, 48 h.
[9] abbreviates: 72 h, read-out: Anti-P. carinii activity IC50, 72 h.

As usually defined, the IC50 is the concentration that inhibits the measured activity by half. As for `COc1cc(NC(C)CCCN2C(=O)CN(C(=O)[C@@H](C)N)C2(C)C)c2ncccc2c1` (stereo partly shown) [Compound 5b], the IC50 in data set [1] (setting [7]) is 16.9 µg/mL (≈ 39.5 µM); in data set [1] (setting [8]), 8 µg/mL (≈ 18.7 µM); in data set [1] (setting [9]), 3.6 µg/mL (≈ 8.42 µM). Moreover, in data set [2] (dose 50 µmol/kg), the “Mean no. of oocysts per mosquito±SEM” value is 1.3 ±0.3.
`COc1cc(NC(C)CCCN2C(=O)CN(C(=O)[C@H](N)CCSC)C2(C)C)c2ncccc2c1` (stereo partly shown) [Compound 5f]: the IC50 was determined as 11.6 µg/mL (≈ 23.8 µM) in data set [1] (setting [7]), 6.4 µg/mL (≈ 13.1 µM) in data set [1] (setting [8]) and 3.4 µg/mL (≈ 6.97 µM) in data set [1] (setting [9]). The “Mean no. of oocysts per mosquito±SEM” value in data set [2] (dose 10 µmol/kg) is 1.2 ±0.4; in data set [2] (dose 50 µmol/kg), 3.8 ±1.4.
The pIC50 is the negative decadic logarithm of the IC50, by convention in mol/L. For `COc1cc(NC(C)CCCN2C(=O)CNC2(C)C)c2ncccc2c1` (stereo not shown) [Compound 4a], in data set [3], the pIC50 is 5.04. For the same molecule, in data set [4], the “Anti-P. carinii activity IC50” value is recorded as 8.3 µg/mL and the pIC50 was 4.64.
Consider `COc1cc(NC(C)CCCN2C(=O)CN(C(=O)[C@H](N)CC(C)C)C2(C)C)c2ncccc2c1` (stereo partly shown) [Compound 5d], for which the figures for the IC50 in data set [1] (setting [7]), in data set [1] (setting [8]) and in data set [1] (setting [9]) were 14.6 µg/mL (≈ 31.1 µM), 8.4 µg/mL (≈ 17.9 µM) and 5.1 µg/mL (≈ 10.9 µM), respectively.
Regarding `COc1cc(NC(C)CCCN2C(=O)CN(C(=O)CN)C2(C)C)c2ncccc2c1` (stereo not shown) [Compound 5a], the results for the IC50 in data set [1] (setting [7]), in data set [1] (setting [8]) and in data set [1] (setting [9]) were 18.1 µg/mL (≈ 43.8 µM), 15.5 µg/mL (≈ 37.5 µM) and 11.6 µg/mL (≈ 28.1 µM), respectively. In data set [5], the “Cytotoxicity (A549 cells) IC50 at 72 h” value is on record as “no toxicity”.
On to `COc1cc(NC(C)CCCN2C(=O)CN(C(=O)[C@H](N)Cc3ccccc3)C2(C)C)c2ncccc2c1` (stereo partly shown) [Compound 5g], for which the IC50 was 12.1 µg/mL (≈ 24 µM) in data set [1] (setting [7]), 9.3 µg/mL (≈ 18.5 µM) in data set [1] (setting [8]) and 5.1 µg/mL (≈ 10.1 µM) in data set [1] (setting [9]). The entries for the “Mean no. of oocysts per mosquito±SEM” value in data set [2] (dose 10 µmol/kg) and in data set [2] (dose 50 µmol/kg) were 3.7 ±1.2 and 2.2 ±0.8, respectively.
Consider `COc1cc(NC(C)CCCN2C(=O)[C@@H](C)N(C(=O)CN)C2(C)C)c2ncccc2c1` (stereo partly shown) [Compound 5h], for which the “Anti-P. carinii activity (activity scale)” value in data set [1] (24 h) is “Inactive”. The IC50 in data set [1] (setting [8]) came out at 32.2 µg/mL (≈ 75.3 µM); in data set [1] (setting [9]) it was 22.3 µg/mL (≈ 52.2 µM). Besides, the results for the “Mean no. of oocysts per mosquito±SEM” value in data set [2] (dose 10 µmol/kg) and in data set [2] (dose 50 µmol/kg) were 3.3 ±1.1 and 1.8 ±0.5, respectively. Also, the “Cytotoxicity (A549 cells) IC50 at 72 h” value in data set [5] is listed as “no toxicity”.
With `COc1cc(NC(C)CCCN2C(=O)[C@@H](C)NC2(C)C)c2ncccc2c1` (stereo partly shown) [Compound 4b], the pIC50 in data set [3] is less than 4.30. Also, the “Activity against blood stage forms IC50” value in data set [3] (ref [28]) is “complete loss of activity”. Moreover, in data set [4], the “Anti-P. carinii activity IC50” value was 83.7 µg/mL and the pIC50 is 3.65.
On to `CC[C@H](C)[C@@H](N)C(=O)N1CC(=O)N(CCCC(C)Nc2cc(OC)cc3cccnc23)C1(C)C` (stereo partly shown) [Compound 5e, 1-isoleucyl-3-(4-(6-methoxyquinolin-8-ylamino)pentyl)-2,2-dimethylimidazolidin-4-one], for which the 50% inhibitory concentration (IC50) is 12.9 µg/mL (≈ 27.5 µM) in data set [1] (setting [7]), 7.5 µg/mL (≈ 16 µM) in data set [1] (setting [8]) and 4.6 µg/mL (≈ 9.79 µM) in data set [1] (setting [9]). The results for the “Mean no. of oocysts per mosquito±SEM” value in data set [2] (dose 10 µmol/kg) and in data set [2] (dose 50 µmol/kg) were 4.9 ±0.6 and 1.5 ±0.5, respectively.
With `COc1cc(NC(C)CCCN2C(=O)CN(C(C)=O)C2(C)C)c2ncccc2c1` (stereo not shown) [Compound 6], in data set [1] (24 h), the “Anti-P. carinii activity (activity scale)” value is “Inactive”. The IC50 in data set [1] (setting [8]) stood at 40.5 µg/mL (≈ 102 µM); in data set [1] (setting [9]) it was 14.6 µg/mL (≈ 36.6 µM). The “Activity against blood stage forms IC50” value in data set [6] was “complete loss of activity; also recorded: devoid of blood-schizontocidal activity”.
For the molecule `COc1cc(NC(C)CCCN2C(=O)CN(C(=O)[C@H](N)C(C)C)C2(C)C)c2ncccc2c1` (stereo partly shown) [Compound 5c], the IC50 in data set [1] (setting [7]) is 24.7 µg/mL (≈ 54.2 µM); in data set [1] (setting [8]) it was 9.2 µg/mL (≈ 20.2 µM); in data set [1] (setting [9]), 6.2 µg/mL (≈ 13.6 µM).
For the molecule `COc1cc(N(C(C)=O)C(C)CCCN2C(=O)CN(C(C)=O)C2(C)C)c2ncccc2c1` (stereo not shown) [Compound 7], the “Anti-P. carinii activity (activity scale)” value in data set [1] (24 h), in data set [1] (48 h) and in data set [1] (72 h) was “Inactive” throughout. For the same molecule, the “Activity against blood stage forms IC50” value in data set [6] is “devoid of blood-schizontocidal activity”.
For the molecule `COc1cc(NC(C)CCCN)c2ncccc2c1` (stereo not shown) [Compound 1, primaquine, reference compound], the 50% inhibitory concentration (IC50) in data set [1] (24 h, read-out: Anti-P. carinii activity IC50) came out at 4.7 µg/mL (≈ 18.1 µM); in data set [1] (48 h, read-out: Anti-P. carinii activity IC50) it was 2.2 µg/mL (≈ 8.48 µM); in data set [1] (72 h, read-out: Anti-P. carinii activity IC50) it was 0.9 µg/mL (≈ 3.47 µM). Further, the entries for the “Mean no. of oocysts per mosquito±SEM” value in data set [2] (dose 10 µmol/kg) and in data set [2] (dose 50 µmol/kg) were 3.5 ±1.2 and 0.2 ±0.2, respectively.
